Entries after “also recorded” stand apart in the source; their conditions may differ.
Tests used:
Assay type in all cases: cell-based
Nav1.3 sodium channel [1] = target: T1, Nav1.3 sodium channel (Homo sapiens, UniProt Q9NY46); test: Na+ depletion/repletion persistent current assay with single-wavelength membrane potential dye on FLIPR-Tetra
Nav1.3 sodium channel [2] = target: T1, Nav1.3 sodium channel; test: cell-based; conditions: for IC50: read-out: IC50 obtained using patch-clamp
HEK-Nav 1.3 cells = test: Counter-screen: K+-dependent depolarization (VIPR FRET); conditions: tetracaine 10 μM; K+ final 80 mM; FIG. 10
Nav1.3 sodium channel [3] = target: T1, Nav1.3 sodium channel; test: Persistent sodium current screening assay using FRET dyes on VIPR (Na+-dependent depolarization); conditions: tetracaine 10 μM; HEK-Nav 1.3 cells; FIG. 10

T1 sequence (Q9NY46 whole entry): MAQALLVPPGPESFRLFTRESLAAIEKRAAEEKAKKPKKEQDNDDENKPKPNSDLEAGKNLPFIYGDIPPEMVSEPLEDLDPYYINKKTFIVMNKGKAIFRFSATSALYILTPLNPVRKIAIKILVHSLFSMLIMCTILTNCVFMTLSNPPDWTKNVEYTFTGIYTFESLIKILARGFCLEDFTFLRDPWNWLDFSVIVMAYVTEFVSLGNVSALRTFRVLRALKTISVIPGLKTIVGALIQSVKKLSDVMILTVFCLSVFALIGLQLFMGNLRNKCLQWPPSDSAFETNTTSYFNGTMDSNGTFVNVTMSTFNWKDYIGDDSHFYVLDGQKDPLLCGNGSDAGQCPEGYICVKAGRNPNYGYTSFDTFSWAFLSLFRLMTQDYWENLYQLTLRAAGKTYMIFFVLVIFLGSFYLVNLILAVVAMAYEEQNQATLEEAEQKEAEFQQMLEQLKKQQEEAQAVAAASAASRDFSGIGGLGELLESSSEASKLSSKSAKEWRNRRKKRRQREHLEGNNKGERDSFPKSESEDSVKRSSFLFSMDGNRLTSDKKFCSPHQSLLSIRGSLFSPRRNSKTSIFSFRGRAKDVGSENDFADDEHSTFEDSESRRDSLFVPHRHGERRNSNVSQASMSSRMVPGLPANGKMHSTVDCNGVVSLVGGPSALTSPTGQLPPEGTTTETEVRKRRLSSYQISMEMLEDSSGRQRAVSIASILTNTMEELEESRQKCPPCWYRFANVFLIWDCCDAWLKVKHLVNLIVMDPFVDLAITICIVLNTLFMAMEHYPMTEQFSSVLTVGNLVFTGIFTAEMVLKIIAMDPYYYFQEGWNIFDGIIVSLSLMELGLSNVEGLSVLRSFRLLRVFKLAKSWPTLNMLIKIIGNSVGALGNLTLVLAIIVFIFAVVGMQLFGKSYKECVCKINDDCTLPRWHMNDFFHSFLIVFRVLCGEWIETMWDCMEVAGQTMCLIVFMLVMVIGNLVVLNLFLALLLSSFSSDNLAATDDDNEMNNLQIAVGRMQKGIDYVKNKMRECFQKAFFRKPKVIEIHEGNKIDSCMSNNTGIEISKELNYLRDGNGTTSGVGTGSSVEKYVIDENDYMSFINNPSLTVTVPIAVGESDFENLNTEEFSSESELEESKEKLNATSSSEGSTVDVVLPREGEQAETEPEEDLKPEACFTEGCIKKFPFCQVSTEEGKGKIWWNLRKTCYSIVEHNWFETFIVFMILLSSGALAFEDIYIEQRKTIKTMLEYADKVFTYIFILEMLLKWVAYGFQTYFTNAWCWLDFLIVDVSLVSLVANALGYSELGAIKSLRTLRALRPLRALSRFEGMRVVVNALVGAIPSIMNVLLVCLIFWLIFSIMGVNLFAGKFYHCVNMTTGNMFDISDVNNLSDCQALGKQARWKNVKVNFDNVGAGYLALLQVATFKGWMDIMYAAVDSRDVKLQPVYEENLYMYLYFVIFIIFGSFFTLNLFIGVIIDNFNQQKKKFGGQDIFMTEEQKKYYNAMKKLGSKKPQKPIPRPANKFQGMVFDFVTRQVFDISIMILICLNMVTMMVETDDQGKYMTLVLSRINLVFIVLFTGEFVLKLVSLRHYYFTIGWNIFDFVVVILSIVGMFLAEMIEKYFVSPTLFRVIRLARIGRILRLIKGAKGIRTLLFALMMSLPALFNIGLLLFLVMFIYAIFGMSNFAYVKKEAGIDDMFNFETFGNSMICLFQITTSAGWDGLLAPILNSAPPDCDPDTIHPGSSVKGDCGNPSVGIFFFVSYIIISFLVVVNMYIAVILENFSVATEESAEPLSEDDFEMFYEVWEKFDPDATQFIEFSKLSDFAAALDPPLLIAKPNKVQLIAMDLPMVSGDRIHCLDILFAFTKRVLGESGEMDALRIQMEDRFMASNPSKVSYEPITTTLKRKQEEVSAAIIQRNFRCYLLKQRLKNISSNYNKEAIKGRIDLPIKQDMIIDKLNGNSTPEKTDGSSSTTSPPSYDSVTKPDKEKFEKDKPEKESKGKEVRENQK

Question: What does the source list for CCN(CC)CC(=O)Nc1c(C)cccc1C [Lidocaine]?
Answer: IC50 (Nav1.3 sodium channel [1]): 32 µM; IC50 (Nav1.3 sodium channel [2]; comparison values for the persistent current assay): 90 µM

Question: How did the “K+-dependent change in Rf/Ri (K+-dependent depolarization)” value (HEK-Nav 1.3 cells) turn out when CCCCNc1ccc(C(=O)OCCN(C)C)cc1 [Tetracaine] was run?
Answer: The value was “not”.

Question: What about the “Na+-dependent change in Rf/Ri (Na+-dependent depolarization)” value (Nav1.3 sodium channel [3]) of the same compound?
Answer: Its value is “inhibited”.

Question: What does the source list for TTX?
Answer: Na+ channel dependent component of the fluorescence response (Nav1.3 sodium channel [1]): blocked; also recorded: the initial response is lost; IC50 (Nav1.3 sodium channel [1]; read-out: IC50 persistent sodium current, FLIPR-Tetra assay): 0.005 µM; Block of persistent current (Nav1.3 sodium channel [2]): completely blocked; Block of transient current (Nav1.3 sodium channel [2]): completely blocked; IC50 (Nav1.3 sodium channel [2]): 0.005 µM

From patent US7754440B2 (priority 2001, dated 2010)
